Measured values as given in US9901591B2, “Paeoniflorin preparations and uses thereof for fat reduction” (priority 2008, dated 2018).

What was measured:
[1] = Targeted fat reduction with injectable PF preparation in patients; assay type: in vivo, human
Description: 1 ml of PF (1) at a concentration of 1 mol is mixed with 4 ml injectable water and 5 ml (phosphatidyl choline (PPC)) prepared from soya bean extract and 5 ml 2% lidocaine. A total of 15 ml solution. This solution is mixed together in a 20 ml syringe and the needle is changed to a small insulin needle Gauge 30×½ as shown therein before the actual injections are given. The solution is then given subcutaneously directly into the fat areas at a dose of 0.5 ml per site totaling 20 injections. These injections are spread out to cover a big surface area, e.g. could be spread out through a whole midsection (“love handle”) in case of a larger patient, or if the patient were an average size it could be spread out to cover right and left love handles in one session. For reference, please refer to the patients injected in the thigh and buttocks area, for explanation. This patient was injected with 30 smaller injections of 0.2 ml per site, and they were spread through out the whole outer and inner thigh and buttocks areas on the right side. 0.5 mg of PF was dissolved in 5 ml of injectable water rendering a concentration of 0.1 mg/ml. This was then mixed with 5 ml of Phosphatidyl Choline in a 20 ml syringe. The large gauge needle was then replaced with a smaller gauge (Gauge 27-30, in some embodiments, a 30 gauge×½) insulin needle and the 10 ml was injected into 20 different sites of a given area. 0.5 ml of the solution was injected into the stomach, with about 1 cm separating each injection site.

intracellular cyclic AMP = experiment: Intracellular cyclic AMP by ELISA in 3T3-L1 adipocytes; assay type: cell-based, mouse; settings: PF, vs control
Description: 3T3-L1 adipocytes were cultured in medium containing […] PF as test group and medium only as control. Cells were lysed by adding 0.1 N HCL, and intracellular cyclic AMP was measured by ELISA.

[2] = Blood indices before and after PF treatment in patients; assay type: in vivo, human; settings: before vs after treatment with PF
Carboxypeptidase E (Cpe) = experiment: Oligo GEArray microarray of obesity-related genes in 3T3-L1 adipocytes; assay type: cell-based, mouse; settings: for Ratio of expression signals of Cpe compared to control: 1 umol/L PF, control = 1
Description: (§1) 3T3-L1 adipocytes were cultured in medium containing 1 umol/L PF as test group and medium only as control. Total RNA was extracted and Oligo GEArray was tested using Superarray OMM-17. The GEArray includes 111 obesity-related genes that are directly involved in the regulation of energy intake and expenditure. The genes included orexigenic peptides, hormones, and receptors, anorectic peptides, hormones, receptors, and central and peripheral signaling molecules involved in energy expenditure. The increase changes or decrease changes of more than 1.5 fold are regarded meaningful according to the diagnosis discipline, as described in the insert literature of a metabolic disease/obesity gene panel product purchased from Superarray Bioscience Corporation. (Frederick, Md.).
In the graphs, the data above the upper line and the data below the lower line show a significant change of gene expression.

Adrb3 = experiment: as above; assay type: cell-based, mouse; settings: for Ratio of expression signals of Adrb3 compared to control: 1 umol/L PF, control = 1
Description: as §1, with “Md.). […] In the graphs, the data above the upper line and the data below the lower line show a significant change of gene expression.” for “Md.).”

Adrb2 = experiment: as above; assay type: cell-based, mouse; settings: for Ratio of expression signals of Adrb2 compared to control: 1 umol/L PF, control = 1
Description: as §1, with “Md.). […] In the graphs, the data above the upper line and the data below the lower line show a significant change of gene expression.” for “Md.).”

[3] = test system: Peroxisome proliferators activated receptor gamma (Pparg); experiment: as above; assay type: cell-based, mouse; settings: for Ratio of expression signals of Pparg compared to control: 1 umol/L PF, control = 1
Description: as §1, with “Md.). […] In the graphs, the data above the upper line and the data below the lower line show a significant change of gene expression.” for “Md.).”

[4] = test system: Adiponectin receptor 1 (Adipor1); experiment: as above; assay type: cell-based, mouse; settings: for Ratio of expression signals of Adipor1 compared to control: 1 umol/L PF, control = 1
Description: as §1, with “Md.). […] In the graphs, the data above the upper line and the data below the lower line show a significant change of gene expression.” for “Md.).”

[5] = test system: β1-adrenergic receptor (Adrb1); experiment: as above; assay type: cell-based, mouse; settings: for Ratio of expression signals of Adrb1 compared to control: 3T3-L1 adipocytes, 1 umol/L PF, control = 1
Description: as §1, with “Md.). […] In the graphs, the data above the upper line and the data below the lower line show a significant change of gene expression.” for “Md.).”

Adra2b = experiment: as above; assay type: cell-based, mouse; settings: for Ratio of expression signals of Adra2b compared to control: 3T3-L1 adipocytes, 1 umol/L PF, control = 1
Description: as §1, with “Md.). […] In the graphs, the data above the upper line and the data below the lower line show a significant change of gene expression.” for “Md.).”

[6] = test system: Hormone sensitive lipase (HSL); experiment: Semi-quantitative RT-PCR of HSL expression in 3T3-L1 adipocytes; assay type: cell-based, mouse; settings: 1 mol/L PF, from the third day after exposure
Description: 3T3-L1 adipocytes were cultured in medium containing […] PF as a test group and medium only as the control group. Total RNA was extracted and reverse transcribed to cDNA employing conventional methods known to those of skill in the art. Primers used for polymerase chain reaction (PCR) amplification of mouse HSL primers were selected based on published sequence (NM_010719) (expected PCR fragment: 409 bp): For semi-quantitative analysis, the amplification cycles were chosen within the linear range (HSL: 24 cycles with […] at 58° C., GAPDH: 21 cycles with […] at 58° C.).

In the case of `C[C@@]12C[C@@]3(O)O[C@@H](O1)[C@]1(COC(=O)c4ccccc4)[C@H]3C[C@@]12O[C@@H]1O[C@H](CO)[C@@H](O)[C@H](O)[C@H]1O` [PF, paeoniflorin], the weight loss ([1]; 2 sessions together with an aerobic instructor, in 2 weeks) is reported as “over 3 pounds”, the “Size at End of Treatment, stomach area” value ([1]; Patient 1, 6 weeks/11 sessions, size before start 90 cm) is reported as 83 cm and the “Size at End of Tx, stomach area” value ([1]; Patient 2, 5 weeks/9 sessions, size before start 96 cm) is reported as 90 cm. The “Size at End, both upper arms” value ([1]; Patient 3, 1 month/8 sessions (4 per side), size before start 40 cm) was 36.5 cm, the fat loss ([1]; each 10 sessions) was “about 7 cm” and the fat loss ([1]; in 5 sessions of 20 injections of 0.5 ml) was 3 cm. The “sessions until a noticeable difference was seen” value ([1]; on average, sessions of 20 injections) was 4-5 sessions, the fat loss ([1]; one patient, 10 sessions over about 6 weeks) was “more than 5 inches” and the “sessions per 1 cm of fat dissolved” value ([1]; stomach and thigh areas, human) was 1-1.5 sessions. For the same compound, the “fat dissolved per session” value ([1]; upper arms areas, human) was “about 1 cm”, the fat lost ([1]; with 10 sessions) was “over 5 pounds” and the “intracellular cAMP” value (intracellular cyclic AMP; first day / 24 hours) was “significantly increased”. The “intracellular cAMP” value (intracellular cyclic AMP; third day / 72 hours) was “significantly increased”, the blood sugar levels [2] was “decreased upon treatment” and the “Ratio of expression signals of Cpe compared to control” value (from here on “Ratio of expression signals of Cpe”) (Carboxypeptidase E (Cpe); 3 days) was 0.79. The “Ratio of expression signals of Cpe” value (Carboxypeptidase E (Cpe); 6 days) was 1.04, the “Ratio of expression signals of Cpe” value (Carboxypeptidase E (Cpe); 7 days) was 2.67 and the “increase of Cpe expression compared to the control” value (Carboxypeptidase E (Cpe); day 7 of exposure to PF) was 2.67 fold. The “Ratio of expression signals of Adrb3 compared to control” value (shortened to “Ratio of expression signals of Adrb3”) (Adrb3; 3 days) was 1.56, the “Ratio of expression signals of Adrb3” value (Adrb3; 6 days) was 3.18 and the “Ratio of expression signals of Adrb3” value (Adrb3; 7 days) was 5.65. The “increase of Adrb3 expression” value (Adrb3; 7 days post exposure to PF) was 5.65 fold, the “Ratio of expression signals of Adrb2 compared to control” value (from here on “Ratio of expression signals of Adrb2”) (Adrb2; 3 days) was 0.74 and the “Ratio of expression signals of Adrb2” value (Adrb2; 6 days) was 1.96. For the same compound, the “Ratio of expression signals of Adrb2” value (Adrb2; 7 days) was 7.40, the “increase of Adrb2 expression” value (Adrb2; 7 days post exposure to PF) was 7.4 fold and the “Ratio of expression signals of Pparg compared to control” value (“Ratio of expression signals of Pparg” for short) ([3]; 3 days) was 0.91. For the same compound, the “Ratio of expression signals of Pparg” value ([3]; 6 days) was 1.09, the “Ratio of expression signals of Pparg” value ([3]; 7 days) was 0.64 and the “reduction of the level of expression of Pparg” value ([3]; day 7 of exposure to PF) was 1.54 fold. For the same compound, the “Ratio of expression signals of Adipor1 compared to control” value (“Ratio of expression signals of Adipor1” for short) ([4]; 3 days) was 0.68, the “Ratio of expression signals of Adipor1” value ([4]; 6 days) was 1.21 and the “Ratio of expression signals of Adipor1” value ([4]; 7 days) was 1.86. The “increase of Adipor1 expression” value ([4]; day 7 of exposure to PF) was 1.86 fold, the “effect on expression of Adrb1” value ([5]; 3T3-L1 adipocytes exposed to PF) was “significant increase” and the “Ratio of expression signals of Adrb1 compared to control” value (shortened to “Ratio of expression signals of Adrb1”) ([5]; 3 days) was 3.39. For the same compound, the “Ratio of expression signals of Adrb1” value ([5]; 6 days) was 0.8, the “Ratio of expression signals of Adrb1” value ([5]; 7 days) was 0.58 and the “effect on expression of Adra2b” value (Adra2b; 3T3-L1 adipocytes exposed to PF, whole study) was “no effect on Adra2b”. For the same compound, the “Ratio of expression signals of Adra2b compared to control” value (from here on “Ratio of expression signals of Adra2b”) (Adra2b; 3 days) was 0.92, the “Ratio of expression signals of Adra2b” value (Adra2b; 6 days) was 1.44 and the “Ratio of expression signals of Adra2b” value (Adra2b; 7 days) was 1.27. The “expression of HSL” value [6] was “increased the expression of HSL”.
